Paper PMC3820577, “A High-Throughput Screen against Pantothenate Synthetase (PanC) Identifies 3-Biphenyl-4-Cyanopyrrole-2-Carboxylic Acids as a New Class of Inhibitor with Activity against Mycobacterium tuberculosis” (PLoS ONE, 2013)
≈ marks a conversion by molar mass, not a printed value. Structures can show the parent of a compound that is named as a salt. Where two headings read alike, the source gives them in different places.

Legend:
[1] = target: T1, PanCMTB (Mycobacterium tuberculosis, UniProt P9WIL5); assay: High-throughput single-timepoint fluorescence assay for PanCMTB activity (HTS and CRC); assay type: biochemical; details: for inhibition of the reaction: control inhibitor
T1 construct: 6X-Histidine (N); made in house; host or cells: E. coli BL21(ΔE3), vector pET28b+
Description: The activity of recombinant PanCMTB was measured, as previously described. Briefly, compounds or carrier DMSO alone were incubated with PanCMTB, the coupling enzymes, and their reagents for five minutes. The reaction was then initiated by addition of the PanCMTB substrates, pantoate and β-alanine. The reaction was conducted in wells of a black clear-bottomed microplate containing a final volume of 40 µL per well. The final concentrations were 0.4 mM NADH, 10 mM ATP, 1 mM pantoate, 5 mM β-alanine, 1 mM phosphoenol pyruvate (PEP-K), 10 mM MgCl2, 2% DMSO, 1 µg/mL of PanC, and 18 U/mL each of myokinase, pyruvate kinase and lactate dehydrogenase in 100 mM HEPES pH 7.8. The plate was immediately transferred to a SpectraMax micro-plate reader and the rate of NADH depletion was monitored by measuring the absorbance at 340 nm every 20 s for a total of 20 min.
The kinetic NADH depletion assay was initiated as described above. After 30 minutes 10 µL of solution containing fluorescent reagents was added to each well. The final 50 µL reaction contained 12.5 U/mL of diaphorase and 5 mM resazurin. After thorough mixing, the plate was transferred to a micro-plate reader and the level of resulting NADH-dependent resorufin determined by measuring fluorescence (excitation and emission filters set at […], respectively).
HTS library sets of individual compounds were plated at 1 mM - diluted first into HEPES and finally into the assay for a final assay concentration (FAC) of 20 µM. For concentration response curves (CRCs), the compounds were plated in single wells at 10 mM and diluted 3-fold across 9 adjacent wells in a row. Serial dilutions were made in 100% DMSO to ensure accurate concentrations of compound across the series. This entire plate was then treated in the same format as the HTS library plates, for FACs ranging from 200 µM- 0.01 µM in 2% DMSO (details provided in Text S1 and shown in Figure S3).

[2] = test system: Vero cells; assay type: cell-based; details: African green monkey, 48 h
Description: Cytotoxicity was measured against the African green monkey adult kidney cell line (Vero). Vero cells were plated at 25,000 cells/mL in black 96-well assay plates pre-populated with compound dilutions and controls. Cells were incubated in a humidified 5% CO2 environment at 37°C for 48 h; intracellular ATP levels were measured using CellTiter-Glo®Reagent (Promega, Madison, WI). Luminescence was measured using a Victor 2 plate reader and percentage inhibition of growth calculated. Results were expressed as toxicity concentration (TC50) = concentration of compound required to inhibit growth by 50%.

[3] = test system: HeLa cells; assay type: cell-based; details: human
[4] = test system: PanC-TetONM strain; assay: microbe, parasite or virus in culture; assay type: cell-based, Mycobacterium tuberculosis
[5] = test system: M. tuberculosis H37Rv (RvS); assay: microbe, parasite or virus in culture; assay type: cell-based, Mycobacterium tuberculosis
[6] = target: T1, PanCMTB; assay: Low-throughput kinetic NADH depletion assay for PanCMTB, mode of inhibition; assay type: biochemical; details: for mode of inhibition / Ki: with respect to pantoate; for Ki: read-out: Ki inhibition constant; for α (parameter of mixed inhibition equation): with respect to the substrate pantoate
[7] = target: T1, PanCMTB; set-up: method as in PMID 17175524; details: read-out: inhibition constant; cited from earlier work
[8] = Mycobacterium tuberculosis, 144 h
[9] = Mycobacterium tuberculosis, H37RV, 144 h

T1 sequence (P9WIL5 whole entry, looked up): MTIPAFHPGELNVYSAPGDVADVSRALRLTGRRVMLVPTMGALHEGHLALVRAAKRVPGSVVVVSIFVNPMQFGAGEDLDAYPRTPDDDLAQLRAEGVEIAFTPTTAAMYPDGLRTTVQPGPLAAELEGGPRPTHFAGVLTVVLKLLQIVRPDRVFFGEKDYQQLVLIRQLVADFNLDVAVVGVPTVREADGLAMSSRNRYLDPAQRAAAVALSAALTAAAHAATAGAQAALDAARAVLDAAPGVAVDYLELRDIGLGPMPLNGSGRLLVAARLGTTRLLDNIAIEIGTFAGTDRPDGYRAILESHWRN

CCSc1c(C#N)c(-c2ccc(-c3ccccc3)cc2)c(C(=O)O)n1C [compound 1]
EC50 [1]: 1800 nM
TC50 [2]: 70000 nM
average TC50 [3]: 179000 nM
MIC50 ([4]; Mycobacterium tuberculosis): 111 µM (≈ 40.2 µg/mL)
MIC50 [4, 8]: 69 µM (≈ 25 µg/mL)
MIC50 [5]: 115 µM (≈ 41.7 µg/mL)
MIC50 [5, 9]: 115 µM (≈ 41.7 µg/mL)
mode of inhibition [6]: competitive inhibition
Ki [6]: 174 nM
α (parameter of mixed inhibition equation) [6]: 128

CCc1c(C#N)c(-c2ccc(-c3ccc(C#N)cc3)cc2)c(C(=O)O)n1C [compound 2]
EC50 [1]: 4000 nM
TC50 [2]: 96000 nM
average TC50 [3]: 111000 nM
MIC50 [4]: 24 µM (≈ 8.53 µg/mL)
MIC50 ([4]; Mycobacterium tuberculosis): 53 µM (≈ 18.8 µg/mL)
MIC50 [4, 8]: 24 µM (≈ 8.53 µg/mL)
MIC50 [5]: 54 µM (≈ 19.2 µg/mL)
MIC50 [5, 9]: 54 µM (≈ 19.2 µg/mL)
mode of inhibition [6]: competitive inhibition
Ki [6]: 297 nM
α (parameter of mixed inhibition equation) [6]: 78

CCN(CC)CCOC(=O)C(Cc1cccc2ccccc12)CC1CCCO1 (stereo not drawn) [nafronyl oxalate, reference compound]
inhibition of the reaction ([1]; higher of two control concentrations): ~80%
inhibition of the reaction ([1]; lower of two control concentrations): ~50%
Ki [7]: ~75000 nM
